Assay results as given in patent US20240342292A1, “Compounds for the Degradation of EGFR Kinase” (BeiGene Switzerland GmbH, priority 2021, published 2024).

How the values were obtained:
[1] = biological target: T1, L858R/T790M/C797S EGFR (Homo sapiens, UniProt P00533, C797S/L858R/T790M); assay: EGFR degradation HTRF assay in H1975-clone #25 (LTC) cells; type: cell-based; conditions: 16h treatment; for DC50: H1975 # 25-LTC (L858R/T790M/C797S), HTRF; for Dmax: NCI-H1975, H1975 # 25-LTC (L858R/T790M/C797S), maximum percentage of degradation
T1 construct: expressed in transfected cells; host or cells: H1975 clone #25 (lentiviral over-expression, endogenous EGFR knocked out by sgRNA)
Procedure, shortened: (§1)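 EGFR levels quantified by HTRF on lysates after 16 h compound exposure (top 10 uM, 5-fold, 8 points) in single-cell H1975 clones expressing only exogenous mutant EGFR after sgRNA knockout of endogenous copies. DC50 derived by four-parameter logistic fitting of inhibition percentage.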

[2] = test system: Del19/T790M/C797S EGFR; assay: EGFR degradation HTRF assay in H1975-clone #28 (DTC) cells; type: cell-based; conditions: H1975 # 28 DTC (Del19/T790M/C797S), 16h treatment; for DC50: HTRF; for Dmax (%): maximum percentage of degradation
Procedure, shortened: as §1

T1 sequence (P00533 25-1210 T790M/C797S/L858R): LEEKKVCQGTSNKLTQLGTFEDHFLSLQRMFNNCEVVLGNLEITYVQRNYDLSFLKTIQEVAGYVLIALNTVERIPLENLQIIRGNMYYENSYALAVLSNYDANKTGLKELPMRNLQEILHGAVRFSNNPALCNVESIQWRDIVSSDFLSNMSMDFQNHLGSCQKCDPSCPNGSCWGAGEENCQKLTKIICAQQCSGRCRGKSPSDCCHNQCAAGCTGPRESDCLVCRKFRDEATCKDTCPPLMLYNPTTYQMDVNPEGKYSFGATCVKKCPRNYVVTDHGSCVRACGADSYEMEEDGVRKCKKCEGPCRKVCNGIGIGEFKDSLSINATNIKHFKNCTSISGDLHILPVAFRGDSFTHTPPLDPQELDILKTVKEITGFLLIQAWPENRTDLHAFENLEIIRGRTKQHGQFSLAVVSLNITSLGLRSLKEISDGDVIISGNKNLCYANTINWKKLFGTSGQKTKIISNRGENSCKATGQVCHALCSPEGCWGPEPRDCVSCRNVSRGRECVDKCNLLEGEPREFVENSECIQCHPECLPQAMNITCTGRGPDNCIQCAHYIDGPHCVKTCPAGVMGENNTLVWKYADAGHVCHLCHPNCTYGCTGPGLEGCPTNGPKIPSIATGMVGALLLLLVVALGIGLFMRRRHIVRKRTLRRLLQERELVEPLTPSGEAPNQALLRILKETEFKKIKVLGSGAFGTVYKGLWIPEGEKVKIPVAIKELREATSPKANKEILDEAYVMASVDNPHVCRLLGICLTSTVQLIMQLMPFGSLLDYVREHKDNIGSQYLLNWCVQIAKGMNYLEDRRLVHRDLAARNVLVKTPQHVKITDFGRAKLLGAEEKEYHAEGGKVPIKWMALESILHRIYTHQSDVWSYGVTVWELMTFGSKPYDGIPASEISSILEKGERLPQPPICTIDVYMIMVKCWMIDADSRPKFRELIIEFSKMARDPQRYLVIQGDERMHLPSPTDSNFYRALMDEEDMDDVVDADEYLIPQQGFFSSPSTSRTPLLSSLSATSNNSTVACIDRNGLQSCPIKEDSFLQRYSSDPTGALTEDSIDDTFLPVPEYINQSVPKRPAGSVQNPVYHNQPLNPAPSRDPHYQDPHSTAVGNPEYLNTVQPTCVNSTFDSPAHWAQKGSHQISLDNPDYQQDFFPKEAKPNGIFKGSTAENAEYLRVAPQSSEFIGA

| SMILES | DC50 [1] [nM] | Dmax [1] [%] | DC50 [2] [nM] | Dmax (%) [2] [%] |
| --- | --- | --- | --- | --- |
| Cc1cc2cc(n1)-c1cnn(C)c1OCCC[C@@H](C)CN1/C(=N/C2=O)Nc2ccc(N3C[C@@H](C)N(C4CCN(c5cc(F)c([C@H]6CCC(=O)NC6=O)c(F)c5)CC4)C[C@H]3C)cc21 [Example 398, (R)-3-(4-(4-((2R,5R)-2,5-dimethyl-4-((R,E)-1^1,2^6,7-trimethyl-3-oxo-5^2,53-dihydro-1^1H,5^1H-11-oxa-4-aza-5(2,1)-benzo[d]imidazola-2(2,4)-pyridina-1(4,5)-pyrazolacycloundecaphane-5^6-yl)piperazin-1-yl)piperidin-1-yl)-2,6-difluorophenyl)piperidine-2,6-dione] | 4.7 | 90.3 | 4.5 | 72.53 |
| Cc1cc2cc(n1)-c1cnn(C)c1OCCC[C@@H](C)CN1/C(=N/C2=O)Nc2ccc(N3CCN(CCCNc4cc(F)c([C@H]5CCC(=O)NC5=O)c(F)c4)CC3)cc21 [Example 400, (R)-3-(2,6-difluoro-4-((3-(4-((R,E)-1^1,2^6,7-trimethyl-3-oxo-5^2,5^3-dihydro-1^1H,5^1H-11-oxa-4-aza-5(2,1)-benzo[d]imidazola-2(2,4)-pyridina-1(4,5)-pyrazolacycloundecaphane-5^6-yl)piperazin-1-yl)propyl)amino)phenyl)piperidine-2,6-dione] | 0.915 | 89.8 | 0.628 | 79.74 |
| Cc1cc2cc(n1)-c1cnn(C)c1OCCC[C@@H](C)CN1/C(=N/C2=O)Nc2ccc(N3CCC(NC4CCN(c5cc(F)c([C@H]6CCC(=O)NC6=O)c(F)c5)CC4)CC3)cc21 [Example 401, (R)-3-(2,6-difluoro-4-(4-((1-((R,E)-1^1,2^6,7-trimethyl-3-oxo-5^2,5^3-dihydro-1^1H,5^1H-11-oxa-4-aza-5(2,1)-benzo[d]imidazola-2(2,4)-pyridina-1(4,5)-pyrazolacycloundecaphane-5^6-yl)piperidin-4-yl)amino)piperidin-1-yl)phenyl)piperidine-2,6-dione] | 1.37 | 81.1 | 3.18 | 70.19 |
| Cc1cc2cc(n1)-c1cnn(C)c1OCCC[C@@H](C)CN1/C(=N/C2=O)Nc2ccc(N3CCC(C(=O)N4CCC(Nc5cc(F)c([C@H]6CCC(=O)NC6=O)c(F)c5)CC4)CC3)cc21 [Example 402, (R)-3-(2,6-difluoro-4-((1-(1-((R,E)-1^1,2^6,7-trimethyl-3-oxo-5^2,53-dihydro-1^1H,5^1H-11-oxa-4-aza-5(2,1)-benzo[d]imidazola-2(2,4)-pyridina-1(4,5)-pyrazolacycloundecaphane-5^6-yl)piperidine-4-carbonyl)piperidin-4-yl)amino)phenyl)piperidine-2,6-dione] | 0.633 | 88.3 | 0.525 | 82.56 |
| Cc1cc2cc(n1)-c1cnn(C)c1OCCC[C@@H](C)CN1/C(=N/C2=O)Nc2ccc(N3CCC(C(=O)N4CC(Oc5cc(F)c([C@H]6CCC(=O)NC6=O)c(F)c5)C4)CC3)cc21 [Example 403, (R)-3-(2,6-difluoro-4-((1-(1-((R,E)-1^1,2^6,7-trimethyl-3-oxo-5^2,5^3-dihydro-1^1H,5^1H-11-oxa-4-aza-5(2,1)-benzo[d]imidazola-2(2,4)-pyridina-1(4,5)-pyrazolacycloundecaphane-5^6-yl)piperidine-4-carbonyl)azetidin-3-yl)oxy)phenyl)piperidine-2,6-dione] | 1.07 | 87.5 | 0.857 | 82.98 |
| Cc1cc2cc(n1)-c1cnn(C)c1OCCC[C@@H](C)CN1/C(=N/C2=O)Nc2ccc(N3CCC(C(=O)N4CC(Nc5cc(F)c([C@H]6CCC(=O)NC6=O)c(F)c5)C4)CC3)cc21 [Example 404, (R)-3-(2,6-difluoro-4-((1-(1-((R,E)-1^1,2^6,7-trimethyl-3-oxo-5^2,5^3-dihydro-1^1H,5^1H-li-oxa-4-aza-5(2,1)-benzo[d]imidazola-2(2,4)-pyridina-1(4,5)-pyrazolacycloundecaphane-5^4-yl)piperidine-4-carbonyl)azetidin-3-yl)amino)phenyl)piperidine-2,6-dione] | 0.94 | 88.5 | 1.69 | 83.57 |
| Cc1cc2cc(n1)-c1cnn(C)c1OCCC[C@@H](C)CN1/C(=N/C2=O)Nc2ccc(N3CCN(CCN(C)c4ccc5c(c4)CN([C@H]4CCC(=O)NC4=O)C5=O)CC3)cc21 [Example 405, (S)-3-(5-(methyl(2-(4-((R,E)-1^1,2^6,7-trimethyl-3-oxo-5^2,5^3-dihydro-1^1H,5^1H-11-oxa-4-aza-5(2,1)-benzo[d]imidazola-2(2,4)-pyridina-1(4,5)-pyrazolacycloundecaphane-5^6-yl)piperazin-1-yl)ethyl)amino)-1-oxoisoindolin-2-yl)piperidine-2,6-dione] | 0.677 | 80.5 | 1.26 | 78.67 |

The next lines start with results.

| DC50 [1] [nM] | Dmax [1] [%] | DC50 [2] [nM] | SMILES | Dmax (%) [2] [%] |
| --- | --- | --- | --- | --- |
| 1.65 | 89.6 | 1.09 | Cc1cc2cc(n1)-c1cnn(C)c1OCCC[C@@H](C)CN1/C(=N/C2=O)Nc2ccc(N3CC4(CCN(CC5CN(c6cc(F)c([C@H]7CCC(=O)NC7=O)c(F)c6)C5)CC4)CC3=O)cc21 [Example 406, (R)-3-(2,6-difluoro-4-(3-((3-oxo-2-((R,E)-1^1,2^6,7-trimethyl-3-oxo-5^2,5^3-dihydro-1^1H,5^1H-11-oxa-4-aza-5(2,1)-benzo[d]imidazola-2(2,4)-pyridina-1(4,5)-pyrazolacycloundecaphane-5^6-yl)-2,8-diazaspiro[4.5]decan-8-yl)methyl)azetidin-1-yl)phenyl)piperidine-2,6-dione] | 85.15 |
| 2.29 | 87.9 | 2.09 | Cc1cc2cc(n1)-c1cnn(C)c1OCCC[C@@H](C)CN1/C(=N/C2=O)Nc2ccc(N3CCN(CCN(C)c4cc(F)c([C@H]5CCC(=O)NC5=O)c(F)c4)CC3)cc21 [Example 407, (R)-3-(2,6-difluoro-4-(methyl(2-(4-((R,E)-1^1,2^6,7-trimethyl-3-oxo-5^2,5^3-dihydro-1^1H,5^1H-11-oxa-4-aza-5(2,1)-benzo[d]imidazola-2(2,4)-pyridina-1(4,5)-pyrazolacycloundecaphane-5^6-yl)piperazin-1-yl)ethyl)amino)phenyl)piperidine-2,6-dione] | 78.49 |
| 0.517 | 60.7 | 3.2 | Cc1cc2cc(n1)-c1cnn(C)c1OCCC[C@@H](C)CN1/C(=N/C2=O)Nc2ccc(N3CCN(C4CCN(c5cc(F)c([C@H]6CCC(=O)NC6=O)c(F)c5)CC4)CC34CC4)cc21 [Example 418, (R)-3-(2,6-difluoro-4-(4-(4-((R,E)-1^1,2^6,7-trimethyl-3-oxo-5^2,5^3-dihydro-1^1H,5^1H-11-oxa-4-aza-5(2,1)-benzo[d]imidazola-2(2,4)-pyridina-1(4,5)-pyrazolacycloundecaphane-5^6-yl)-4,7-diazaspiro[2.5]octan-7-yl)piperidin-1-yl)phenyl)piperidine-2,6-dione] | 91.56 |
